# Test results published in patent USRE36832E, “N-heteroaryl-N'-phenylurea derivatives, their production and use” (Nihon Nohyaku Co., LTD, priority 1993, dated 2000).
# Tests used:
# serum cholesterol = experiment: Serum cholesterol lowering activity in hamsters fed on a high-cholesterol diet; type: in vivo, Male Syrian hamsters; conditions: 30 mg per kg of body weight per day for 4 days, 24 hours after the last administration
# Description: Serum cholesterol lowering activity in hamsters fed on a high-cholesterol diet
# Male Syrian hamsters of 10-week-old were divided into three groups. The first group (normal group) was fed an ordinary diet for 4 days. The second group (control group) was fed a high cholesterol diet (containing 0.5% cholesterol and 8.0% coconut oil for 4 days. The third group (treated group) was fed a high cholesterol diet and was treated with a compound for 4 days. Simultaneously with the beginning of the above feeding, the compound suspended in a 0.5% carboxymethyl cellulose solution was administered to the treated group, in a dose of 30 mg (in terms of the compound) per kg of body weight per day for 4 days. A 0.5% carboxymethyl cellulose solution was also administered to the normal group and the control group in the same manner as above. After 24 hours of the last administration, blood was collected and the cholesterol concentration in serum was measured by an enzymatic method. The reduction rate of the total serum cholesterol concentration was calculated from values obtained for the three groups by the following equation. [formula] wherein A: the serum cholesterol concentration of the control group.
# B: the serum cholesterol concentration of the compound treated group.
# C: the serum cholesterol concentration of the normal group.
# [1] = biological target: T1, acyl-CoA:cholesterol O-acyltransferase (ACAT) (Oryctolagus cuniculus, UniProt G1SFD9); experiment: Inhibitory activity on acyl-CoA:cholesterol O-acyltransferase (ACAT), intestinal mucosa microsomal fraction, [1-14C]oleyl-CoA incorporation into cholesterol esters; type: biochemical, white rabbit; conditions: read-out: Inhibition rate %
# T1 construct: The intestinal mucosa of a white rabbit was homogenized and microsomal fraction was obtained by stepwise centrifugation; from tissue; host or cells: intestinal mucosa of white rabbit, microsomal fraction
# T1 sequence (G1SFD9 1-524): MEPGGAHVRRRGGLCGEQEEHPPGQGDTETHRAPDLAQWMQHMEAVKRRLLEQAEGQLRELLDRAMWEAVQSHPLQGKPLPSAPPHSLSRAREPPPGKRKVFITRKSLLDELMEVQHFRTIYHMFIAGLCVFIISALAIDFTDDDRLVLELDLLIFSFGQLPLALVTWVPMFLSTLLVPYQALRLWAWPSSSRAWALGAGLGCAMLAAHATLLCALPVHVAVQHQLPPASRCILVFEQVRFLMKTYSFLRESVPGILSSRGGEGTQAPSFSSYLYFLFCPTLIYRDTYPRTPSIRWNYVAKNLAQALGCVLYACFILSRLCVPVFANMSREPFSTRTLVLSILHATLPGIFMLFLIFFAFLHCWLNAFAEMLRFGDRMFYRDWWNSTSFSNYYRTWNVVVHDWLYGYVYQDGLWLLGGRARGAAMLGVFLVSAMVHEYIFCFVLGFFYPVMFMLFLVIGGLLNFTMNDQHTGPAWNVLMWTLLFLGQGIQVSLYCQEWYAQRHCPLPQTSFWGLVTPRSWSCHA
# Description: Inhibitory activity on acyl-CoA:cholesterol Oacyltransferase (ACAT)
# The enzyme used in the test was prepared according to the method of Heider et al. [J. Lipid, Res. 24, 1127 (1983)]. The intestinal mucosa of a white rabbit was homogenized and microsomal fraction was obtained by stepwise centrifugation. The microsomal fraction was suspended in 0,154M phosphate buffer (pH 0 7.4) and stored at -80° C. until use.
# ACAT activity was determined by a modification of the method of Helgerud et al. [J. Lipid Res. 22, 271 (1981)] by measuring radioactivity incorporated into cholesterol esters from [1-14C]oleyl-CoA, as an indication. As to the ACAT-inhibiting activity of each compound to be tested, the inhibition rate was calculated by the following equation.
# [2] = system: cholesterol esterification in macrophages; experiment: Inhibitory effect on cholesterol esterification in macrophages (J774 A.1 cells, AcLDL-loaded, [14C]oleate incorporation); type: cell-based; conditions: Mus musculus, Macrophage, read-out: Inhibition rate (%)
# Description: Inhibitory effect on cholesterol esterification in macrophages
# The test was carried out by a modification of the method of Goldstein et al. [Pro. Nat. Acad. Sci. USA 71, 4288 (1974)]. J774 A.1 cells, the mouse macropharge-like cell line, were suspended in Dulbecco's modified Eagle's medium (DMEM) containing 10% fetal calf serum (FCS), in a proportion of 3×10^5 cells per 2 ml and were seeded into in 6-well plates. The cells were cultured under a humidified atmosphere of 95% air/5% CO2 at 37° C. for 24 hours. The medium was replaced by 1 ml of DMEM containing 10% of FCS and 50 μg/ml of acetylated human low density lipoprotein (AcLDL), followed by culturing for 16 hours. Five microliters each compound was dissolved in dimethyl sulfoxide and solution was added to the medium, followed by culturing for another 2 hours. Then, [14C]oleate (2×10^6 dpm/well) bovine serum albumin complex was added in the medium. After 2 hours of culture cells were collected and the cholesterol-esterifying activity was determined by measuring radioactivity incorporated into cholesterol esters in the cells. The recovery of the cholesterol esters was determined by the addition of [3H]cholesteryl oleate, and the esterifying activity was corrected using the recovery. As to the inhibitory activity on cholesterol esterification of the compound to be tested, the inhibition rate was calculated by the following equation. [formula] wherein A: the cholesterol-esterifying activity of AcLDL-loaded cells to which the compound to be tested was-added.
# B: the cholesterol-esterifying activity of AcLDL-loaded cells to which dimethyl sulfoxide was added.
compound,measurement,setting,value
"CCc1cccc(CC)c1NC(=O)Nc1oc2ccc(Cl)cc2c1-c1ccccc1Cl [Compound 12, N-[5-Chloro-3-(2-chlorophenyl)benzofuran-2-yl]-N'-(2,6-diethylphenyl)urea]",Reduction rate (%) of the total serum cholesterol concentration,serum cholesterol,55.0%
same,inhibition at 0.01 µM,[1],82.9%
same,inhibition at 1 µM,[1]; 1 μM,99.4%
same,inhibition at 0.1 µM,[2],93%
same,inhibition at 1 µM,[2],99.5%
"CCc1cccc(CC)c1NC(=O)Nc1sc2cc(C)c(C)cc2c1-c1ccccc1Cl [Compound 80, N-[3-(2-Chlorophenyl)-5,6-dimethyl-1-benzothiophen-2-yl]-N'-(2,6-diethylphenyl)urea]",Reduction rate (%) of the total serum cholesterol concentration,serum cholesterol,85.9%
same,inhibition at 0.01 µM,[1],69.9%
same,inhibition at 0.1 µM,[2],85.3%
same,inhibition at 1 µM,[2],96.9%
